Measurements: patent US20080021002A1, “VITAMIN D COMPOUNDS USED TO STABILIZE KIDNEY TRANSPLANTS” (priority 2000, published 2008)

Legend:
Assay type in all cases: in vivo, rat
Smad 7 protein = test: Western blot of renal graft lysates, Smad 7 protein; details: allogeneic grafts vs untreated allogeneic grafts (FIG. 4B)
From the text: (§1) Renal lysates were subjected to SDS-PAGE and transferred to nitrocellulose membranes. The membranes were probed with specific anti-Smad antibodies and appropriated HRP-conjugated secondary antibodies. Signal was detected with chemilumensnce. Following exposure, x-ray films were scanned and the amount of expression compared to that of tubulin as an internal control using Scion Image software. FIG. 4 (A) describes R-Smad expression. FIG. 4 (B) described I-Smad expression.
(§2) Western Blot Analysis: A portion of the snap frozen graft containing both cortex and medulla was ground with a mortar and pestle. For each 100 mg of tissue, the sample was resuspened in 400 ul of lysis buffer (10 mM Tris base, 150 mM NaCl, pH 8.0) containing protease inhibitors (P2714 1:1000. Sigma Chemical Co., St. Louis, Mo.) and homogenized (PowerGen 125, 1 minute). Triton X100 was then added to 1% and the sample place on ice, for 30 minutes. The solubilized sample was then spun at 4° C. for 15 minutes at 15,000×G. The supernatant was collected and stored at −80° C. Sample protein concentrations were determined using the Micro BCA assay (Pierce Chemical Co., Rockford, Ill.) according to manufacturer=s instructions, except that the assay was performed in half area plates combining 35 μl sample with 70 µl of reagent. […]

Smad 6 mRNA = test: Semi-quantitative RT-PCR of renal grafts, Smad 6 mRNA
From the text: FIG. 3 is a bar graph disclosing that 1,25-(OH)2D3 treated increases Smad 6 mRNA expression. Semi-quantitative RT-PCR was used to determine Smad mRNA express. PCR products were quantified on a phosphoimager and the level of Smad expression compared to that of a ribosomal housekeeping gene, S26. Results are expressed as the ratio to S26.
Semi-quantitative Reverse transcription polymerace chain reaction (RT-PCR): Following graft harvest a […] containing both cortex and medulla was snap frozen in liquid nitrogen. Semi-quantitative RT-PCR was performed as described. Little et al. Transplant Int. 12:393-401, 1999. Briefly, samples were homogenized then total RNA extracted with RNAzol B (Tel Test, Inc., Friendswood, Tex.) and reversed transcribed to cDNA according to manufacturer=s instructions (Superscript, Gibco BRL). PCR was performed over the linear range of amplification for both the gene of interest, e.g. TGFβ-1, and the ribosomal protein S26 as a control housekeeping gene. PCR conditions were chosen such that both products were amplified with similar efficiency. The following cycle parameters were employed: denaturing, 94° C. for 60 seconds; annealing, 61° C. for 60 seconds; and extension, 72° C. for 60 seconds. The amount of product was quantified using a phosphoimager (Storm 80) following gel electrophoresis and Vista green detection.

Smad 6 protein = test: Western blot of renal graft lysates, Smad 6 protein; details: allograft recipients vs allogeneic untreated control group
From the text: as §1, §2

[1] = test system: Fisher to Lewis renal allograft; test: Fisher to Lewis renal allograft model of chronic allograft nephropathy (graft survival, serum creatinine, urinary protein, histology)
Experimental: Animals: Donor and recipients rats (greater than 250 gm) were obtained from Harlan Sprague Dawley, Indianapois, Ind. Recipient animals were placed on experimental diet containing 0.47% Ca 7 days prior to transplantation. Hullett et al., Transplantation 66:824-828, 1998. Recipients were divided into groups which received experimental diet alone or experimental diet containing 1,25-(OH)2D3 (250, 500, or 1000 ng/rat/day) or cyclosporine 1.5 or 5 mg/kg/day i.p. for 10 days. Animals were maintained on diet until the time or rejection or graft harvest at 24 weeks. All care and use of laboratory animals followed the NIH (NIH publication No. 86-23) guidelines. 1,25-(OH)2D3 was prepared, dissolved in ethanol and placed in the experimental diet as previously described.1,25-(OH)2D3 was the generous gift or Dr. Hector DeLuca, Department of Biochemistry, University of Wisconsin. Cyclosporine (Sandimmune i.v.; 1.5 or 5 mg/kg/day for 10 days,) was diluted in saline and given i.p. Transplantation: The Fisher to Lewis model of chronic allograft nephropathy has been previously described. Diamond et al., Transplantation 54:710-716, 1992. Briefly, donor kidneys obtained from male Fisher 344 rats were flushed with 10 ml cold University of Wisconsin preservation solution and stored at 4° C. while the recipient was prepared. […] Lewis male recipients were transplanted with either a Fisher 344 or Lewis kidney following left native nephrectomy. Briefly, the donor renal artery, vein and ureter were anastomosed to the recipient renal artery, vein and ureter. The right native kidney was removed 10 days post-transplant. Graft function was monitored by serum creatinine and urinary protein determinations. Urinary Protein: Proteinuria was assessed weekly. Animals were placed in metabolic cages for 6 hours and urine collected. Protein excretion was determined using a dye binding assay (quanTest red, Quantimetrix Corp., Redondo Beach, Calif.) according to manufacturer=s instructions with minor modifications. Briefly, 20 μl of the urine sample was diluted with 1×PBS in a two-fold series dilution in 96-well flat-bottom microtiter plates (Corning, N.Y.). […] Data was analyzed with Softmax Pro-software (Molecular Devices Corp.; Sunnyvale, Calif.). Graft survival was compared using the log rank test. Differences in mRNA and protein expression were compared by t-test.

[2] = allograft, 500 ng/rat/day, FIG. 2B

## C=C1/C(=C\C=C2/CCC[C@]3(C)[C@@H]([C@H](C)CCCC(C)(C)O)CC[C@@H]23)C[C@@H](O)C[C@@H]1O [calcitriol, 1,25-dihydroxyvitamin D3]
Smad 7 protein
  Increase in Smad 7 protein levels: 4,3 fold
Smad 6 mRNA; allogeneic grafts, vs untreated allogeneic grafts (1,25-(OH)2D3 p=0.02)
  Smad 6 mRNA expression: significantly increased
Smad 6 mRNA; syngeneic grafts, vs untreated allogeneic grafts, p=0.001
  Smad 6 mRNA expression: significantly increased
Smad 6 protein
  Smad 6 protein expression: decreased
[1]; 250 ng/day in diet, p=0.04
  Graft survival: prolonged graft survival was not as readily demonstrated
[1]; 500 ng/rat/day in diet, vs allogeneic untreated controls, p=0.0009
  Graft survival: significant prolongation of graft survival was sustained
[1]; 500 ng/rat/day monotherapy (data not shown), vs untreated allogeneic controls or CSA 1.5 mg/kg/d
  Urinary protein: significantly lowered
[1]; 1000 ng
  Calcium deposits in graft: Significant calcium deposits
[1]; 1000 ng/rat/day in diet, monotherapy, vs allogeneic untreated controls, p=0.0031
  Graft survival: significantly prolonged
[1]; 1000 ng/rat/day monotherapy, p=0.004, vs untreated allogeneic controls or CSA 1.5 mg/kg/d (10 days)
  Urinary protein: significantly lowered
[1]; 250 and 500 ng/day groups
  Calcium deposition, histological examination: reduced calcium deposition
  Cellular infiltration, histological examination (Banff): mild to moderate cellular infiltration (Banff IA or IIA)
[1]; 250 and 500 ng/day groups (data not shown)
  Serum calcium levels: remained elevated
[1]; 500 or 250 ng/day
  Rise in serum creatinine at 2 weeks post-transplant: Neither the 500 or the 250 ng/day dose of 1,25-(OH)2D3 prevented the rise
[1]; 1000 or 500 ng/rat/day
  Prolonged graft survival compared with low dose CSA (5 mg/kg/day for 10 days): not statistically different
[1]; CSA: short-term low dose monotherapy, 1,25-(OH)2D3 in diet
  Early acute rejection episode (within 2 weeks post-transplant): diminished
[1]; [2]
  Cellular infiltration (H&E): significantly decreased
  Interstitial fibrosis (H&E): little or no interstitial fibrosis
[1]; allografts, H&E, FIG. 2B
  Histological features of CAN (interstitial fibrosis, glomerulosclerosis, neointimal hyperplasia): inhibited the development of these pathological features
[1]; p=0.035 versus untreated allogeneic control (FIG. 1B)
  Serum creatinine at 2 weeks post-transplant: only a slight increase
[1]; treated allograft recipients, FIG. 2D-E
  Collagen deposition (trichrome stain): decreased collagen deposition
